One assay has as its system C. albicans CaCi-8. The experiment in a line: Secondary assay 1: CaCi-8 with 8 µg/mL fluconazole (Alamar Blue growth). The assay is classed as cell-based, Candida albicans. The settings on record: for CaCi-8 IC50: 37 °C, 48 hours, with test compound and 8 µg/mL (26 µM) fluconazole, average of at least three independent experiments in duplicate, inactive = negligible activity at concentrations below 26 µM; for IC50: Candida albicans, CACI8, 48 h, read-out: CaCi-8 IC50. On the procedure: All of the compounds prepared above were evaluated for their ability to chemosensitize the C. albicans test strains CaCi-2 and CaCi-8 towards fluconazole. […] The DMSO/fluconazole combination served as an internal control. […]
(1/OD measured) × (desired final volume of inoculum) × 0.3 = volume of fungal culture (µL) to add to desired volume of growth medium. When added to media in wells, this yields a calculated starting OD of the fungal inoculum of 0.00015. […]
3) Use a Thermo Combi nL to dispense 20 µL/well of assay media into all wells. […]
EnVision (Perkin Elmer) plate reader setup: Ex 544 nm, Em 590 nm, bandwidth 12 nm, top read.
Secondary assay 1: CaCi-8 with 8 µg/mL fluconazole […]
35808016); geldanamycin (AG Scientific Catalog no. […]
PBS w/o calcium and magnesium (Cellgro Catalog no. 21-040-CV)
(§1) Synthetic defined growth medium
(§2) RPMI 1640 medium, (powder without sodium bicarbonate; Invitrogen Catalog no. […]
no. 028K0760); glucose 40% (w/v) in water (Sigma Catalog no. G-5400); MOPS buffer […]
1) Prepare 1× RPMI medium by dissolving 10.4 g powdered medium in 800 mL […]
(§3) 2) Add 34.52 g MOPS. While stirring, adjust pH to 7.0 with 10 N NaOH.
(§4) 3) Add 10 mL uridine solution, 50 mL glucose solution, adjust final volume to 1000 […]
Test strain: C. albicans CaCi-8
1) Inoculate 500 µL of strain from cryopreserved stock into a 250 mL shaker flask containing 30 mL growth medium. Shake at 30 °C overnight (16 hours).
2) Read OD 600 of 1 mL of fungal culture in a cuvette using a standard optical density reader (Eppendorf BioPhotometer Plus), with growth medium as a […]
3) Dilute to a desired volume of fungal inoculum according to following formula: […]
1) Add fluconazole stock solution to fungal inoculum to achieve 8 µg/mL.
2) Add Pen/Strep to media to 1% concentration.
4) Dispense geldanamycin in positive control wells using Thermo Combi nL for a final concentration of 3 µM.
5) Then, pin 100 nL of test compound from compound plates into assay plates using a CyBi-Well pin tool.
6) Dispense 20 µL/well of culture into the assay media in all wells.
7) Incubate the plates in a humidified (90% humidity) Liconic incubator at 37 °C without agitation for 48 hours.
8) Dilute Alamar Blue 1:40 in Ca/Mg-free PBS.
9) To all plates, add 5 µL/well of the diluted Alamar Blue to plates to a final dilution […]
10) Incubate the plates for 2 hours. […]
(In general: The colour change of resazurin is a common sign of viable cells or microbes.)

Another assay relates to C. albicans CaCi-2. The experiment in a line: Primary screen and dose-response retest: CaCi-2 with 8 µg/mL fluconazole (Alamar Blue growth). The format is cell-based, Candida albicans. Conditions: 37 °C, 48 hours, with test compound and 8 µg/mL (26 µM) fluconazole, average of at least three independent experiments in duplicate, inactive = negligible activity at concentrations below 26 µM; for IC50: Candida albicans, CACI2. On the procedure:
All of the compounds prepared above were evaluated for their ability to chemosensitize the C. albicans test strains CaCi-2 and CaCi-8 towards fluconazole. […] The DMSO/fluconazole combination served as an internal control.
Protocols for cellular assays
Primary screen and dose-response retest: CaCi-2 with 8 µg/mL fluconazole […]
Clear, flat-bottom, black, 384-well plates (Corning Catalog no. 3712BC; Lot no. […]
DMSO; Fluconazole (Sequoia Research Products Ltd) 2 mg/mL stock solution in PBS; […]
(AG Scientific Catalog no. DAL 1100; Lot no.151016SA); PBS without calcium and magnesium (Cellgro Catalog no. 21-040-CV)
as §1, §2
no. 028KO760); Glucose 40% (w/v) in water (Sigma Catalog no. G-5400); MOPS buffer […]
1) Prepare 1× RPMI medium by dissolving 10.4 grams powdered medium in 800 […]
as §3, §4
Test Strain: C. albicans CaCi-2
1) Inoculate 500 µL of strain from cryopreserved stock into a 250 mL shaker flask containing 30 mL growth medium. Shake at 30 °C overnight.
2) Read OD 600 of 1 mL fungal culture in a cuvette using a standard optical density reader (Eppendorf BioPhotometer Plus), with growth medium as a background […]
3) Dilute to desired volume of fungal inoculums according to the following formula:
(1/OD measured) × (desired final volume of inoculum) × 0.3 = volume of fungal culture (µL) to add to desired volume of growth medium. When added to media in wells, this yields a calculated starting OD of the fungal inoculum of 0.00015.
1) Add fluconazole stock solution to fungal inoculum to achieve a final concentration […]
2) Add Pen/Strep at 0.1 mL per 10 mL media (1% v/v).
3) Use a Thermo Combi nL to dispense 20 µL/well of assay media into all wells.
4) Pin 25 nL test compound from compound plates into assay plates using CyBi- […]
5) Dispense 20 µL/well of culture into the assay media in all wells.
6) Incubate plates in a humidified (90% humidity) Liconic incubator at 37 °C without […]
7) Dilute Alamar Blue Reagent 1:40 in Ca/Mg-free PBS.
8) To all plates, add 5 µL/well of the diluted Alamar to a final dilution factor of 1:200.
9) Incubate the plates for an additional 2 hours.
10) Read the relative fluorescence intensity (RFU) of wells on a standard plate reader as a measure of relative fungal growth. EnVision (Perkin Elmer) plate reader setup: Ex 544 nm, Em 590 nm, bandwidth 12 nm, top read. […]

SMILES strings stand for the structures. Bounds are passed on as bounds.

This is an account of results in article PMC3740683, “ML212: A small-molecule probe for investigating fluconazole resistance mechanisms in Candida albicans” (Beilstein Journal of Organic Chemistry, 2013).

As usually defined, the IC50 is the concentration that inhibits the measured activity by half. For the compound `COC(=O)Cn1nc(-c2ccccc2)c2cc(F)ccc21` [Compound 13], the “CaCi-8 IC50” value with C. albicans CaCi-8 is “inactive”. The IC50 in the assay with C. albicans CaCi-2 turned out to be 11.2 ± 7.2 µM.
On to `COC(=O)Cn1nc(-c2cc(OC)cc(OC)c2)c2ccccc21` [Compound 41], for which the “CaCi-8 IC50” value with C. albicans CaCi-8 is “inactive”. Also, in the assay with C. albicans CaCi-2, the “CaCi-2 IC50” value is “inactive”.
`COC(=O)Cn1nc(C(C)(C)C)c2ccccc21` [Compound 23]: the “CaCi-8 IC50” value in the assay with C. albicans CaCi-8 was “inactive”. In addition, the “CaCi-2 IC50” value in the assay with C. albicans CaCi-2 was “inactive”.
With `COC(=O)Cn1ncc2ccccc21` [Compound 21], in the assay on C. albicans CaCi-8, the “CaCi-8 IC50” value is “inactive”. Also, the “CaCi-2 IC50” value in the assay with C. albicans CaCi-2 was “inactive”.
`COC(=O)Cn1nc(-c2cccc(F)c2)c2ccccc21` [Compound 38]: the figures for the IC50 in the assay on C. albicans CaCi-8 and in the assay with C. albicans CaCi-2 were 4.2 ± 4.1 µM and 1.7 ± 0.4 µM, respectively.
Taken in the same sequence, the figures for `COC(=O)Cn1nc(-c2ccc(C)cc2)c2ccccc21` [Compound 30] were 19.5 ± 14.2 µM and 4.8 ± 2.5 µM.
As to `COC(=O)Cn1nc(-c2ccc(OC)cc2)c2ccccc21` [Compound 31], the IC50 in the assay with C. albicans CaCi-8 turned out to be 14.1 ± 6.4 µM; in the assay with C. albicans CaCi-2, 4.2 ± 1.7 µM.
Consider `COC(=O)Cn1nc(-c2ccc(C(F)(F)F)cc2)c2ccccc21` [Compound 33], for which, in the assay on C. albicans CaCi-8, the “CaCi-8 IC50” value was “inactive”. For the same compound, in the assay on C. albicans CaCi-2, the “CaCi-2 IC50” value is “inactive” and the IC50 is over 26 µM.
In the case of `COC(=O)Cn1nc(-c2cnco2)c2ccccc21` [Compound 28], the “CaCi-8 IC50” value with C. albicans CaCi-8 is “inactive”. The “CaCi-2 IC50” value in the assay with C. albicans CaCi-2 is “inactive”.
Turning to `COC(=O)Cn1nc(-c2ccccc2)c2cccnc21` [Compound 20], the “CaCi-8 IC50” value in the assay with C. albicans CaCi-8 is “inactive”. Further, the “CaCi-2 IC50” value in the assay on C. albicans CaCi-2 is “inactive”.
On to `COC(=O)Cn1nc(-c2cccc(C)c2)c2ccccc21` [Compound 35], for which the IC50 came out at 1.9 ± 0.9 µM in the assay with C. albicans CaCi-8 and 1.1 ± 0.6 µM with C. albicans CaCi-2.
Turning to `COC(=O)Cn1nc(-c2ccccc2)c2cc(Cl)ccc21` [Compound 14], the “CaCi-8 IC50” value with C. albicans CaCi-8 is “inactive”. Further, the “CaCi-2 IC50” value in the assay with C. albicans CaCi-2 is “inactive”.
`COC(=O)Cn1nc(-c2ccccc2OC)c2ccccc21` [Compound 40]: the IC50 in the assay on C. albicans CaCi-8 amounted to 11.4 ± 1.7 µM; in the assay with C. albicans CaCi-2, 9.3 ± 3.6 µM.
In the case of `CCc1nn(CC(=O)OC)c2ccccc12` [Compound 22], the “CaCi-8 IC50” value in the assay with C. albicans CaCi-8 was “inactive”. Further, the “CaCi-2 IC50” value with C. albicans CaCi-2 was “inactive”.
Take `COC(=O)Cn1nc(-c2ccccc2)c2ccc(C)cc21` [Compound 15]: the “CaCi-8 IC50” value with C. albicans CaCi-8 is “inactive”. The IC50 with C. albicans CaCi-2 is 5.9 ± 3.1 µM.
Take `COC(=O)Cn1nc(-c2ccccc2)c2cc(OC)ccc21` [Compound 12]: the values for the IC50 with C. albicans CaCi-8 and in the assay with C. albicans CaCi-2 were 22.1 ± 6.2 µM and 14.9 ± 5.7 µM, respectively.
Consider `COC(=O)Cn1nc(-c2ccccc2)c2ccc(OC)cc21` [Compound 16], for which the figures for the IC50 in the assay on C. albicans CaCi-8 and in the assay on C. albicans CaCi-2 were 12.4 ± 0.5 µM and 9.5 ± 2.5 µM, respectively.
On the same counts, the results for `COC(=O)Cn1nc(-c2ccccc2)c2ccc(Cl)cc21` [Compound 17] are 8.4 ± 0.5 µM and 4 ± 1.3 µM.
In the case of `COC(=O)Cn1nc(-c2ccccc2)c2ccc(C(F)(F)F)cc21` [Compound 18], the “CaCi-8 IC50” value with C. albicans CaCi-8 was “inactive”. Also, the “CaCi-2 IC50” value in the assay with C. albicans CaCi-2 is “inactive”.
For the compound `COC(=O)Cn1nc(-c2ccccc2)c2cc(C)ccc21` [Compound 11], the IC50 was 8.2 ± 3.2 µM in the assay on C. albicans CaCi-8 and 5.2 ± 2.2 µM in the assay with C. albicans CaCi-2.
In the case of `COC(=O)Cn1nc(-c2ccccc2)c2cccc(C(F)(F)F)c21` [Compound 19], the “CaCi-8 IC50” value in the assay with C. albicans CaCi-8 was “inactive”. For the same compound, the “CaCi-2 IC50” value in the assay with C. albicans CaCi-2 was “inactive”.
For `COC(=O)Cn1nc(C2CCCCC2)c2ccccc21` [Compound 25], the results for the IC50 with C. albicans CaCi-8 and in the assay with C. albicans CaCi-2 were 6 ± 1.7 µM and 2.3 ± 0.3 µM, respectively.
As to `COC(=O)Cn1nc(-c2cccnc2)c2ccccc21` [Compound 26], the “CaCi-8 IC50” value in the assay on C. albicans CaCi-8 was “inactive”. The “CaCi-2 IC50” value with C. albicans CaCi-2 is “inactive”.
As for `COC(=O)Cn1nc(C2CC2)c2ccccc21` [Compound 24], the “CaCi-8 IC50” value in the assay on C. albicans CaCi-8 was “inactive”. Further, the “CaCi-2 IC50” value in the assay on C. albicans CaCi-2 was “inactive”.
With `COC(=O)Cn1nc(-c2ccc(F)cc2)c2ccccc21` [Compound 32], the IC50 in the assay with C. albicans CaCi-8 was determined as 12.3 ± 3.9 µM; in the assay on C. albicans CaCi-2 it was 8.3 ± 2.8 µM.
Take `COC(=O)Cn1nc(-c2cncnc2)c2ccccc21` [Compound 27]: in the assay with C. albicans CaCi-8, the IC50 amounted to 21.1 ± 3.3 µM. The “CaCi-2 IC50” value in the assay on C. albicans CaCi-2 was “inactive”.
In the case of `COC(=O)Cn1nc(-c2cccc(N(C)C)c2)c2ccccc21` [Compound 37], the half-maximal inhibitory concentration (IC50) in the assay on C. albicans CaCi-8 worked out at 2 ± 0.2 µM; with C. albicans CaCi-2, 0.8 ± 0.1 µM.
As for `COC(=O)Cn1nc(-c2cscn2)c2ccccc21` [Compound 29], in the assay with C. albicans CaCi-8, the “CaCi-8 IC50” value is “inactive”. In the assay with C. albicans CaCi-2, the IC50 came out at 12.9 ± 1.7 µM.
`COC(=O)Cn1nc(-c2ccc(C#N)cc2)c2ccccc21` [Compound 34]: the concentration for half-maximal inhibition (IC50) in the assay with C. albicans CaCi-8 is 20.5 ± 0.3 µM; in the assay on C. albicans CaCi-2, over 26 µM. The “CaCi-2 IC50” value with C. albicans CaCi-2 was “inactive”.
Turning to `COC(=O)Cn1nc(-c2ccccc2C)c2ccccc21` [Compound 39], the half-maximal inhibitory concentration (IC50) with C. albicans CaCi-8 worked out at 7.8 ± 2.6 µM; with C. albicans CaCi-2, 5.3 ± 0.5 µM.
